These results are taken from PubChem BioAssay (NCI).

Each structure is given as a SMILES string.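 Growth conditions: 96-well plates. Treatment: test compound, 48 hours, 5 concentrations. Analysis: linear interpolation between bracketing concentrations; unreached endpoints set to highest concentration. GI50 is the concentration that inhibits growth by half. The concentration for full growth arrest is given as TGI.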

Among the test systems are SF-268 CNS; HOP-62 NSCLC; NCI-H522 lung; HCT-15 colon; M19-MEL melanoma; M14 melanoma; SNB-78 CNS; ACHN renal; MCF7 breast; NCI/ADR-RES ovarian.
What all share (assay): NCI tumour cell line growth inhibition, 48 h

Turning to `COc1cc2c3c(c1OCc1ccccc1)NCCC3NCC2` (stereo not drawn), the TGI in the test with SF-268 CNS, with HOP-62 NSCLC, in the test with NCI-H522 lung, with HCT-15 colon, in the test with M19-MEL melanoma and in the test on M14 melanoma was above 100 µM throughout. Moreover, the TGI with SNB-78 CNS was above 100 µM.
Consider `NC(=O)OCC(COc1ccc(Cl)cc1)OC(=O)c1cc([N+](=O)[O-])cc([N+](=O)[O-])c1` (stereo not drawn), for which the TGI in the test with SF-268 CNS, in the test on HOP-62 NSCLC, in the test with NCI-H522 lung, with HCT-15 colon, with M14 melanoma and in the test on SNB-78 CNS was above 100 µM throughout. This compound also returned a TGI with ACHN renal above 100 µM.
For `C/C=C/C=C\C(=O)C1c2cccc(O)c2C(=O)c2c(O)cc(C)cc21` (stereo not drawn), the TGI in the test with SF-268 CNS is 2.05 µM; in the test with HOP-62 NSCLC it was 4.27 µM; in the test with NCI-H522 lung, 3.06 µM; in the test with HCT-15 colon it was 3.6 µM; in the test on M19-MEL melanoma it was 2.16 µM; in the test on ACHN renal, 2.66 µM.
Turning to `COc1cccc(N2C(=O)[C@H]3[C@H]4CC(C(C)(C)C)CC[C@H]4c4c([nH]c5ccccc45)[C@H]3C2=O)c1` (stereo partly drawn), the TGI is 54.7 µM with SF-268 CNS; 31.7 µM in the test with HOP-62 NSCLC; 45.7 µM with NCI-H522 lung; above 100 µM in the test with HCT-15 colon; 44.1 µM in the test on M19-MEL melanoma; 30.7 µM in the test with M14 melanoma. The compound further came in with a TGI in the test with SNB-78 CNS of 35.3 µM.
On to `CN/N=C(/CC(=O)c1sc(-n2nc(-c3ccccc3)cc2-c2ccccc2)nc1C)C(=O)Nc1ccc(Cl)c(Cl)c1`, for which the TGI in the test with SF-268 CNS, in the test on HOP-62 NSCLC, with NCI-H522 lung, in the test with HCT-15 colon, with M19-MEL melanoma and in the test on SNB-78 CNS was above 100 µM in each case. The compound also had a TGI with ACHN renal above 100 µM.
For the compound `COc1ccc(NC(=O)CC(=O)n2nc(-c3ccccc3)c(N=Nc3ccccc3C)c2-c2ccccc2)cc1`, the TGI in the test with SF-268 CNS is 35.7 µM; in the test on MCF7 breast, above 100 µM; in the test on HOP-62 NSCLC, 33.8 µM; in the test with NCI-H522 lung it was 47.8 µM; in the test on HCT-15 colon, above 61.3 µM; in the test on NCI/ADR-RES ovarian, above 100 µM. For the same compound, the figures for the TGI in the test with M19-MEL melanoma, in the test on M14 melanoma and in the test with ACHN renal were above 100 µM, above 100 µM and 63.7 µM, respectively.
Turning to `CO[C@]12CCC(=O)N1C=Cc1c2[nH]c2ccccc12`, the TGI in the test with SF-268 CNS, with HOP-62 NSCLC, in the test with HCT-15 colon, in the test on M19-MEL melanoma, with M14 melanoma and in the test with SNB-78 CNS was above 100 µM in each case. Moreover, in the test with ACHN renal, the TGI was above 100 µM.
Take `CC1=C2[C@@H](c3ccccc3)C3C=CC2(c2ccccc23)N(C(=O)Nc2cccc3ccccc23)C1=O` (stereo partly drawn): the TGI in the test with SF-268 CNS, in the test with HOP-62 NSCLC, in the test with HCT-15 colon, in the test with M14 melanoma, in the test on SNB-78 CNS and in the test with ACHN renal was above 100 µM each time.
Turning to `CC1OC(n2cc(I)c(=O)[nH]c2=O)C=CC1=O` (stereo not drawn), the TGI in the test on SF-268 CNS came out at 27.1 µM; in the test on HOP-62 NSCLC it was 32.7 µM; in the test on HCT-15 colon, 32.3 µM; in the test with M19-MEL melanoma, 30.6 µM; in the test with M14 melanoma, 30.6 µM; in the test with SNB-78 CNS it was 31.9 µM. In the test with ACHN renal, this compound yielded a TGI of 31.5 µM.
As to `CCOC(=O)NN(C(=O)OCC)C(C(=O)c1ccc(Cl)cc1)=C1NCCN1`, the TGI with SF-268 CNS, in the test on HOP-62 NSCLC, in the test with NCI-H522 lung, in the test with M19-MEL melanoma, with M14 melanoma and in the test with SNB-78 CNS was above 100 µM in each case. In the test on ACHN renal, the TGI was above 100 µM.
For `C[C@]12CC/C(=N\OC(=O)Nc3ccccc3)C=C1CC[C@@H]1C2CC[C@@]2(C)C1CC[C@@H]2OC(=O)Nc1ccccc1` (stereo partly drawn), the TGI in the test with SF-268 CNS is above 100 µM; with HCT-15 colon, 14.2 µM; with M19-MEL melanoma, above 100 µM; with M14 melanoma, above 100 µM; with SNB-78 CNS it was above 100 µM; in the test with ACHN renal it was above 100 µM.
`O=C(CC(=O)c1cccc([N+](=O)[O-])c1)C(=O)Nc1nc([N+](=O)[O-])cs1`: the TGI in the test with SF-268 CNS, in the test with HOP-62 NSCLC, in the test with NCI-H522 lung, in the test on HCT-15 colon, with M19-MEL melanoma and with M14 melanoma was above 100 µM each time. Also, in the test with SNB-78 CNS, the TGI was above 100 µM.
Take `NCC(=O)NC(CO)C(=O)O` (stereo not drawn): the TGI in the test on SF-268 CNS, in the test with MCF7 breast, in the test on HOP-62 NSCLC, in the test with NCI-H522 lung, in the test with HCT-15 colon and in the test on NCI/ADR-RES ovarian was above 100 µM in each case. The TGI with M14 melanoma and in the test on ACHN renal was above 100 µM throughout.
For the compound `CN1CCN(CCCOc2ccc3nc(Nc4ccc(C(F)(F)F)c(Cl)c4)ccc3c2)CC1`, the GI50 was 1.66 µM in the test on SF-268 CNS; 1.37 µM with MCF7 breast; 1.63 µM in the test with HOP-62 NSCLC; 2.02 µM in the test on NCI-H522 lung; 1140 nM in the test on HCT-15 colon; 1880 nM with NCI/ADR-RES ovarian. Also, the results for the GI50 with M14 melanoma and with ACHN renal were 1.71 µM and 1.74 µM, respectively. Moreover, the TGI is 3.43 µM in the test on SF-268 CNS; 3.56 µM in the test with MCF7 breast; 3.18 µM in the test with HOP-62 NSCLC; 3.74 µM in the test on NCI-H522 lung; 2.62 µM in the test on HCT-15 colon; 5.22 µM in the test on NCI/ADR-RES ovarian. Further, the TGI in the test on M14 melanoma was found to be 3.32 µM; in the test on ACHN renal, 3.31 µM.
`O=C(c1ccncc1)N1CCN(C2=NS(=O)(=O)c3ccccc3N2c2ccccc2)CC1`: the GI50 with SF-268 CNS is 8.37 µM; in the test on MCF7 breast, 7.39 µM; in the test with HOP-62 NSCLC, 8.06 µM; in the test on NCI-H522 lung it was 5.98 µM; with HCT-15 colon, above 100000 nM; in the test on NCI/ADR-RES ovarian, above 100000 nM. The GI50 in the test on M14 melanoma is 13.3 µM; in the test with ACHN renal, 11.1 µM. The TGI with SF-268 CNS was above 100 µM; in the test on MCF7 breast, above 100 µM; in the test on HOP-62 NSCLC, 32.3 µM; with NCI-H522 lung, 67 µM; with HCT-15 colon it was above 100 µM; with NCI/ADR-RES ovarian, above 100 µM. Also, the results for the TGI in the test with M14 melanoma and in the test on ACHN renal were above 100 µM and 53.6 µM, respectively.
